Assay results: publication PMC9503446, “Effects of Medicinal Leech-Related Cationic Antimicrobial Peptides on Human Blood Cells and Plasma” (Molecules, 2022)
No end group written: not given here.

Columns and labels:
Escherichia coli = assay: MIC determination, microtiter dilution; assay type: cell-based, Escherichia coli str. K12 substr. MG1655; conditions: present study, two-fold dilution series in MHB, 37 °C, 24 h, turbidity at 560 nm, mean of three independent experiments
Method: CAMPs were designed and synthesized as described previously in our works. The minimum inhibitory concentrations (MICs) for the Gram-negative bacterium Escherichia coli and Gram-positive bacterium Bacillus subtilis were determined earlier or in the present study. The MIC values for Escherichia coli were the same or higher than those for Bacillus subtilis. The CAMP concentrations tested were in the range up to 100 μM.
Escherichia coli str. K12 substr. MG1655 (Invitrogen) and Bacilus subtilis str. 168HT (Vavilov Institute of General Genetics, Russian Academy of Sciences, Moscow, Russia) were grown in Luria–Bertani broth (Difco, BD Difco, Thermo Fisher Scientific Inc., Waltham, MA, USA) according to standard procedure. Bacteria were stored with 10% glycerol at −70 °C until use. MIC determination was carried out by growing bacteria in 96-well microtitration plates in the presence of a two-fold dilution series of the peptide using the standard microtiter dilution method. Briefly, single bacterial clones were cultured overnight in Mueller–Hinton broth (MHB, BD Difco, Thermo Fisher Scientific Inc., Waltham, MA, USA) at 150 rpm and 37 °C, then transferred to fresh MHB and cultured until the logarithmic growth phase. […] After incubation at 37 °C for 24 h, the antimicrobial susceptibility was estimated by turbidity measurement at 560 nm using a microplate reader. […]

erythrocytes [1] = assay: Hemolysis assay, erythrocytes in PBS; assay type: cell-based, human; conditions: 0.5 h, 37 °C
Method: Erythrocytes were incubated (0.5 h, 37 °C) with different CAMP concentrations ranging from 6.25 μM to 100 μM. Incubation conditions chosen were similar to those used in other studies. Following incubation, the samples were centrifuged, and the supernatant analyzed spectrophotometrically for hemoglobin at 414 nm and 540 nm. Absorption at 414 nm provides higher sensitivity. The results were the same no matter which wavelength was used to monitor for hemoglobin.
(§1) The hemolytic activity of CAMPs was determined using a hemolysis assay measuring hemoglobin released from damaged cells. A working erythrocyte suspension (in PBS) was prepared so that its ten-fold dilution gave an optical density of 0.4 at 800 nm. This working suspension corresponded to a cell density of about 30 × 10^6 cells/mL. Aliquots of 125 μL of CAMP solutions of different concentrations were added to Eppendorf tubes. […] The supernatant (200 μL) was transferred to the wells of a microplate, and the absorbance of hemoglobin was measured by a Thermo Electron Multiskan Ascent microplate reader (Thermo Fisher Scientific Inc., Waltham, MA, USA), with a test wavelength of 414 nm as well as 540 nm and a background wavelength of 690 nm. The hemolysis percentage was calculated using the following equation: Hemolysis (%) = {(sample absorbance − negative control)/(positive control − negative control)} × 100.

erythrocytes [2] = assay: Hemolysis assay in the presence of human serum albumin (HSA); assay type: cell-based; conditions: 50 μM peptide, 50 μM HSA, 0.5 h, 37 °C
Method: Given that the normal HSA concentration in plasma is 500–700 μM and the dilution of plasma in the final, cell-containing samples was 1:10, a final HSA concentration of 50 μM was applied. Then, 100 μM CAMP working solutions were made up in PBS or PBS containing 100 μM or 70 μM HSA to give final concentrations of 50 μM CAMP and 50 μM or 35 μM HSA.
as §1

[3] = preparation of 2 mM stock solution; dissolved with PBS containing 4% DMSO
Method: First, 2 mM stock solutions of CAMPs were prepared in PBS, except for the CAMPs pept_1 and pept_2. […] Its 2 mM solution was made up using PBS containing 4% DMSO (PBS/DMSO), which gave a final DMSO concentration not higher than 0.2% in any of experiments. […] Therefore, negative controls containing relevant concentrations of DMSO were run for pept_1 and pept_2, and DMSO contribution was eliminated by subtracting the measured value in the negative control samples from that in the test samples.

Substance | MIC (E. coli) (Escherichia coli) | Hemolysis (erythrocytes [1]; 100 μM peptide in PBS, no plasma, Triton X-100 = 100%) | EC50 (erythrocytes [1]; hemolysis assay, rough estimate, read-out: Concentration at which 50% lysis was achieved, erythrocytes) | Inhibition of CAMP-induced hemolysis by HSA (erythrocytes [2]) | Solubility in PBS [3]
FRIMRILRVLK-NH2 [pept_2] | 10 µM | 10–15% | – | – | –
FRIMRILRVLKL-NH2 [pept_1] | – | – | 65 µM | nearly completely | poorly soluble in PBS
